Source: patent publication US6921770B2 (priority 2000, dated 2005)
Read-outs that look alike come from different tables or passages of the source.

How the values were obtained:
Pyricularia grisea = type: in vivo
rice blast fungi = type: in vivo, Pyricularia grisea

Molecule | controlling effect on rice blast (Pyricularia grisea; 2 ppm) [%] | controlling effect on rice blast (Pyricularia grisea; 10 ppm) [%] | controlling effect on rice blast (Pyricularia grisea; 100 ppm) [%] | Inhibiting Ratio (%) (at 250 ppm) (rice blast fungi) | controlling effect on rice blast (Pyricularia grisea; 2 ppm, hydrochloride) [%] | controlling effect on rice blast (Pyricularia grisea; 10 ppm, hydrochloride) [%] | controlling effect on rice blast (Pyricularia grisea; 100 ppm, hydrochloride) [%]
Cl.Cn1c(CC(=O)Nc2ccc(Cl)cc2)csc1=Nc1ccc(C#N)cc1 [Compound 128, 2-(4-cyanophenylimino)-3-methyl-4-[N-(4-chlorophenyl)carbamoylmethyl]-1,3-thiazol-4-ine hydrochloride] | 85 | 100 | 100 | 98 |  |  | 
CCCCc1ccc(N=c2scc(CC(=O)Nc3ccc(C)c(Cl)c3)n2C)cc1.Cl [Compound 234, 2-[4-(n-butyl)phenylimino]-3-methyl-4-(N-[3-chloro-4-methylphenyl)carbamoylmethyl]-4-thiazoline hydrochloride] | 75 | 92 | 97 | 97 |  |  | 
COc1ccc(NC(=O)Cc2csc(=Nc3cccc(Br)c3)n2C)cc1 [Compound 335, 2-(3-bromophenylimino)-3-methyl-4-[N-(methoxyphenyl)carbamoylmethyl]-1,3-thiazol-4-ine] | 72 | 95 | 94 | 99 |  |  | 
COc1ccc(NC(=O)Cc2csc(=Nc3ccc(C(F)(F)F)cc3)n2C)cc1F.Cl [Compound 343, 2-(4-trifluoromethylphenylimino)-3-methyl-4-[N-(3-fluoro-4-methoxyphenyl)carbamoylmethyl]-1,3-thiazol-4-ine hydrochloride] | 90 | 94 | 98 |  |  |  | 
COc1ccc(NC(=O)Cc2csc(=Nc3ccc(C#N)cc3)n2C)cc1F.Cl [Compound 344, 2-(4-cyanophenylimino)-3-methyl-4-[N-(3-fluoro-4-methoxyphenyl)carbamoylmethyl]-1,3-thiazol-4-ine hydrochloride] | 83 | 97 | 98 |  |  |  | 
COc1ccc(NC(=O)Cc2csc(=Nc3ccc(C(F)(F)F)cc3)n2C)cc1.Cl [Compound 205, 2-(4-trifluoromethylphenylimino)-3-methyl-4-[N-(4-methoxyphenyl)carbamoylmethyl]-1,3-thiazol-4-ine hydrochloride] | 93 | 98 | 97 | 97 |  |  | 
CCc1ccc(NC(=O)Cc2csc(=Nc3ccc(C(F)(F)F)cc3)n2C)cc1.Cl [Compound 346, 2-(4-trifluoromethylphenylimino)-3-methyl-4-[N-(4-ethylphenyl)carbamoylmethyl]-1,3-thiazol-4-ine hydrochloride] | 79 | 96 | 99 |  |  |  | 
Cl.Cn1c(CC(=O)Nc2ccccc2F)csc1=Nc1ccc(Br)cc1 [Compound 152, 2-(4-bromophenylimino)-3-methyl-4-[N-(2-fluorophenyl)carbamoylmethyl]-1,3-thiazol-4-ine hydrochloride] | 70 | 85 | 99 | 100 |  |  | 
CCc1ccc(NC(=O)Cc2csc(=Nc3ccc(C#N)cc3)n2C)cc1.Cl [Compound 341, 2-(4-cyanophenylimino)-3-methyl-4-[N-(4-ethylphenyl)carbamoylmethyl]-1,3-thiazol-4-ine hydrochloride] |  |  |  |  | 96 | 98 | 93
CCc1ccc(NC(=O)Cc2csc(=Nc3ccc(C#N)cc3)n2C)cc1.Cl [Compound 345, 2-(4-cyanophenylimino)-3-methyl-4-[N-(4-ethylphenyl)carbamoylmethyl]-1,3-thiazol-4-ine hydrochloride] |  |  |  |  | 70 | 94 | 97
COc1ccc(NC(=O)Cc2csc(=Nc3ccc(F)c(Cl)c3)n2C)cc1.Cl [Compound 202, 2-(3-chloro-4-fluorophenylimino)-3-methyl-4-[N-(4-methoxyphenyl)carbamoylmethyl]-1,3-thiazol-4-ine hydrochloride] | 93 | 98 | 95 | 95 |  |  | 
Br.Cn1c(CC(=O)Nc2ccccc2)csc1=Nc1ccc(F)cc1F [Compound 27, 2-(2,4-difluorophenylimino)-3-methyl-4-(N-phenylcarbamoylmethyl)-1,3-thiazol-4-ine hydrobromide] | 80 | 91 | 98 | 98 |  |  | 
COc1ccc(NC(=O)Cc2csc(=Nc3ccc(F)cc3F)n2C)cc1.Cl [Compound 206, 2-(2,4-difluorophenylimino)-3-methyl-4-[N-(4-methoxyphenyl)carbamoylmethyl]-1,3-thiazol-4-ine hydrochloride] | 93 | 97 | 93 | 93 |  |  | 
CCCCc1ccc(N=c2scc(CC(=O)Nc3ccc(OC)cc3)n2C)cc1.Cl [Compound 197, 2-[4-(n-butyl)phenylimino]-3-methyl-4-[N-(4-methoxyphenyl)carbamoylmethyl]-1,3-thiazol-4-ine hydrochloride] | 83 | 98 | 95 | 95 |  |  | 
Cc1ccc(NC(=O)Cc2csc(=Nc3cc(OC(C)C)c(Cl)cc3F)n2C)cc1.Cl [Compound 342] | 90 | 98 | 92 |  |  |  | 
Cl.Cn1c(CC(=O)Nc2ccc(Cl)cc2)csc1=Nc1ccccc1F [Compound 160, 2-(2-fluorophenylimino)-3-methyl-4-[N-(4-chlorophenyl)carbamoylmethyl]-1,3-thiazol-4-ine hydrochloride] |  |  |  | 88 |  |  | 
2-(2-fluorophenylimino)-3-methyl-4-[N-(methoxyphenyl)carbamoylmethyl]-1,3-thiazol-4-ine [Compound 338] |  |  |  | 97 |  |  | 
Br.Cc1ccc(NC(=O)Cc2csc(=Nc3ccc(Cl)cc3F)n2C)cc1 [Compound 50, 2-(4-chloro-2-fluorophenylimino)-3-methyl-4-[N-(4-methylphenyl)carbamoylmethyl]-1,3-thiazol-4-ine hydrobromide] |  |  |  | 100 |  |  | 
